# According to US9987200B2, “Activated micro-bubble based root canal disinfection” (SyACT, LLP, priority 2014, dated 2018):
# How the values were obtained:
# [1] = test system: bacterial biofilms; test: Laser confocal microscopy of treated root canals, live/dead bacteria (FIGS. 20-22); type: cell-based; conditions: then sonic and light activation of the micro-bubble solution
# Text: FIGS. 21-22 show laser confocal microscopy images showing bacterial biofilms (and dead cells as red and viable cells are green).
# In these photographs, active bacteria are shown in green and dead bacteria as shown in red. FIG. 20 contains photomicrographs of a control tooth.
# [2] = Singlet oxygen release measured with 1,3-diphenylisobenzofuran (DPBF); type: physicochemical; conditions: with sonic activation compared with no sonic activation (FIG. 11)
# Procedure: As noted above, when the light reaches the photosensitive compound, the photosensitive compound releases energy to convert the oxygen molecules to singlet oxygen. […] The singlet oxygen release was measured using 1, 3-diphenylisobenzofuran (DPBF). DPBF is a chemical used to study the degree of release of singlet oxygen; it is not actually part of the micro-bubble solution or the photosensitizing solution. As is known, DPBF undergoes bleaching with singlet oxygen and this can be calorimetrically quantified. […]
# FIG. 11 contains graphs showing singlet oxygen yield of methylene blue (on the left hand graph) and rose bengal (on the right hand graph) both with sonic activation (square data points) and without sonic activation (diamond data points). […] The substantial fall off in absorbance in the sonically activated samples (as compared to the non-activated samples) for both the methylene blue and the rose bengal show substantial increase in micro-bubble activity within the first few seconds of activation of the micro-bubble solution.
# [3] = test system: Enterococcus faecalis biofilms; test: Confocal laser scanning microscopy of biofilms subjected to different treatments (FIG. 15); type: cell-based; conditions: one week old E. faecalis biofilms; live green, dead red; light 660 nm
# Text: FIG. 15 contains in the first two columns, images showing the three-dimensional confocal laser scanning microscopy reconstruction of the Enterococcus faecalis biofilms subjected to different treatments (60×).
# The first two columns of FIG. 15 contain images which show one week old bacterial biofilms of Enterococcus faecalis before and after treatment for the different groups. Each of the six images in the first two columns show active and dead bacteria, with the active bacteria being shown in green and the dead bacteria being shown in red. The two left-hand columns of FIG. 15 contains, images showing the three-dimensional confocal laser scanning microscopy reconstruction of the Enterococcus faecalis biofilms subjected to different treatments (60×). […] However, there active bacteria remain.
# [4] = cited from earlier work
compound,measurement,setting,value
CN(C)c1ccc2nc3ccc(=[N+](C)C)cc-3sc2c1 [methylene blue],Active bacteria remaining in root canal,[1]; MB in a water carrier,substantially all of the active bacteria have been eliminated
same,Active bacteria remaining in root canal,"[1]; MB in polyethylene glycol, alcohol and water carrier solution",substantially all of the active bacteria have been eliminated
same,Fall off in absorbance (singlet oxygen yield),[2],falls off much more rapidly
O=C([O-])c1c(Cl)c(Cl)c(Cl)c(Cl)c1-c1c2cc(I)c(=O)c(I)c-2oc2c(I)c([O-])c(I)cc12.[Na+].[Na+] [rose bengal],Fall off in absorbance (singlet oxygen yield),[2],fell off much more quickly
OCl [sodium hypochlorite],Active (live) bacteria remaining in biofilm,[3],kills (eliminates) nearly all of the active bacteria
Triton X-100,Solubility,"[4]; at 25° C. in water, benzene, toluene, xylene, trichloroethylene, ethylene glycol, ethyl ether, ethanol, isopropanol, ethylene dichloride",soluble in all proportions
same,Viscosity (Brookfield),[4]; at 25° C.,240 cps
